The values that follow come from PubChem BioAssay (NCI).

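Briefly, cells in 96-well plates were exposed to five compound concentrations for 48 h, and endpoints were estimated by linear interpolation. GI50: concentration for 50% inhibition of growth. TGI: total growth inhibition.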 Where only a bound is given, the exact number is not on record here.

Among the test systems are LOX IMVI melanoma; IGROV1 ovarian; UO-31 renal; PC-3 prostate; A549 NSCLC; NCI-H23 lung; MOLT-4 leukemia; HCT-15 colon; OVCAR-5 ovarian; U251 CNS.
Assay in all cases: NCI tumour cell line growth inhibition, 48 h

`CC(C)OC(=O)[C@H](C)NP(=O)(OC[C@H]1O[C@@H](n2ccc(=O)[nH]c2=O)[C@](C)(F)[C@@H]1O)Oc1ccccc1` (stereo not given in full): the GI50 in the experiment on LOX IMVI melanoma, in the experiment on IGROV1 ovarian, in the experiment with UO-31 renal, with PC-3 prostate, in the experiment with A549 NSCLC and with NCI-H23 lung was more than 100 µM in each case. Also, the GI50 in the experiment on MOLT-4 leukemia, in the experiment with HCT-15 colon, in the experiment with OVCAR-5 ovarian and in the experiment on U251 CNS was more than 100 µM throughout. The TGI with LOX IMVI melanoma, in the experiment on IGROV1 ovarian, in the experiment on UO-31 renal, with PC-3 prostate, with A549 NSCLC and with NCI-H23 lung was more than 100 µM throughout. In addition, the TGI with MOLT-4 leukemia, with HCT-15 colon, in the experiment on OVCAR-5 ovarian and with U251 CNS was more than 100 µM throughout.
In the case of `CC12CCC3c4ccc(O)cc4CCC3C1C/C(=N\O)C2O` (stereo not given), the TGI in the experiment with LOX IMVI melanoma, in the experiment on IGROV1 ovarian, in the experiment with UO-31 renal, with PC-3 prostate, in the experiment on A549 NSCLC and in the experiment on NCI-H23 lung was more than 100 µM throughout. In addition, the TGI in the experiment on MOLT-4 leukemia, in the experiment with HCT-15 colon, in the experiment with OVCAR-5 ovarian and with U251 CNS was more than 100 µM throughout.
As for `O=S(=O)(Nc1ccc(Cl)cc1Cl)c1ccc(-c2cnc(C3CC3)o2)cc1`, the GI50 is 0.542 µM with LOX IMVI melanoma; 0.647 µM with IGROV1 ovarian; 1.06 µM in the experiment with UO-31 renal; 0.612 µM in the experiment on PC-3 prostate; 1.02 µM in the experiment on A549 NSCLC; 1.4 µM in the experiment with NCI-H23 lung. The GI50 with MOLT-4 leukemia was 0.692 µM; with HCT-15 colon it was 0.445 µM; with OVCAR-5 ovarian, 2.66 µM; in the experiment on U251 CNS it was 0.613 µM. Besides, the TGI with LOX IMVI melanoma is 34 µM; in the experiment with IGROV1 ovarian, more than 73.3 µM; in the experiment with UO-31 renal, 37.1 µM; in the experiment with PC-3 prostate it was more than 53.2 µM; in the experiment with A549 NSCLC, more than 100 µM; in the experiment on NCI-H23 lung, 55.5 µM. The TGI is more than 100 µM with MOLT-4 leukemia, 40.4 µM in the experiment with HCT-15 colon, more than 100 µM with OVCAR-5 ovarian and 33.8 µM in the experiment with U251 CNS.
As to `O=C(NNc1ccccc1)C(=O)NNc1ccccc1`, the GI50 in the experiment on LOX IMVI melanoma is 4.34 µM; in the experiment on IGROV1 ovarian it was more than 100 µM; with UO-31 renal it was more than 100 µM; in the experiment with PC-3 prostate it was more than 100 µM; with A549 NSCLC it was 3.53 µM; with NCI-H23 lung it was more than 100 µM. For the same compound, the GI50 is 1.6 µM with MOLT-4 leukemia, 0.746 µM with HCT-15 colon, more than 100 µM in the experiment on OVCAR-5 ovarian and more than 100 µM in the experiment with U251 CNS. In addition, the TGI in the experiment on LOX IMVI melanoma, with IGROV1 ovarian, with UO-31 renal, with PC-3 prostate, with A549 NSCLC and with NCI-H23 lung was more than 100 µM each time. Moreover, the TGI in the experiment on MOLT-4 leukemia, in the experiment with HCT-15 colon, in the experiment with OVCAR-5 ovarian and with U251 CNS was more than 100 µM in each case.
Take `COc1cc(/C=C\c2cc(OC)c(OC)c(OC)c2)cc(N/C=C\C(=O)c2cc(OC)c(OC)c(OC)c2)c1OC`: the GI50 was 3.54 µM in the experiment with LOX IMVI melanoma; 6.06 µM in the experiment with IGROV1 ovarian; 2.63 µM in the experiment with UO-31 renal; 2.89 µM in the experiment with PC-3 prostate; 5.14 µM in the experiment with A549 NSCLC; 4.22 µM in the experiment with NCI-H23 lung. Further, the GI50 in the experiment on MOLT-4 leukemia is 4.62 µM; with HCT-15 colon it was 3.08 µM; in the experiment on OVCAR-5 ovarian, 3.64 µM; with U251 CNS, 3.84 µM. Also, the TGI with LOX IMVI melanoma, in the experiment on IGROV1 ovarian, in the experiment with UO-31 renal, with PC-3 prostate, in the experiment on A549 NSCLC and in the experiment with NCI-H23 lung was more than 100 µM in each case. Besides, the TGI in the experiment on MOLT-4 leukemia, in the experiment on HCT-15 colon, in the experiment on OVCAR-5 ovarian and with U251 CNS was more than 100 µM in each case.
Consider `CCN(Cc1ccc(F)cc1)c1ccc(CO)c(Br)c1`, for which the GI50 was 11.6 µM in the experiment on LOX IMVI melanoma; 0.0402 µM in the experiment with IGROV1 ovarian; 2.89 µM with UO-31 renal; 12.8 µM in the experiment on PC-3 prostate; 0.614 µM in the experiment on A549 NSCLC; 15.6 µM with NCI-H23 lung. For the same compound, the GI50 in the experiment on MOLT-4 leukemia was 18.8 µM; in the experiment on HCT-15 colon, 5.8 µM; in the experiment with OVCAR-5 ovarian it was 0.0525 µM; in the experiment on U251 CNS, 0.171 µM. The TGI with LOX IMVI melanoma was 26.1 µM; in the experiment with IGROV1 ovarian, 0.202 µM; in the experiment with UO-31 renal, more than 40.3 µM; in the experiment with PC-3 prostate, 36.2 µM; in the experiment with A549 NSCLC, 21.3 µM; in the experiment on NCI-H23 lung, more than 56.1 µM. Also, the TGI was 53.1 µM in the experiment with MOLT-4 leukemia, more than 52.6 µM with HCT-15 colon, 0.225 µM in the experiment with OVCAR-5 ovarian and 13 µM in the experiment on U251 CNS.
In the case of `CC(C)=CCc1cc2c(cc1O)OC[C@H]1c3cc4c(cc3O[C@@H]21)OCO4`, the TGI is 31.7 µM in the experiment on LOX IMVI melanoma; more than 100 µM in the experiment on IGROV1 ovarian; more than 100 µM in the experiment with UO-31 renal; more than 100 µM in the experiment on PC-3 prostate; more than 100 µM in the experiment on A549 NSCLC; 96.3 µM in the experiment with NCI-H23 lung. Besides, the TGI was 57.4 µM in the experiment with MOLT-4 leukemia, more than 100 µM with HCT-15 colon, more than 100 µM in the experiment with OVCAR-5 ovarian and more than 100 µM with U251 CNS.
Take `Oc1ccc(Nc2c3ccccc3nc3occ(Cl)c23)cc1`: the GI50 in the experiment with LOX IMVI melanoma was 6.68 µM; with IGROV1 ovarian, 1.19 µM; in the experiment on UO-31 renal it was 5.61 µM; in the experiment on PC-3 prostate it was 2.71 µM; with A549 NSCLC, 3.3 µM; in the experiment on NCI-H23 lung, 3.26 µM. Further, the GI50 in the experiment on MOLT-4 leukemia was 3.14 µM; with HCT-15 colon it was 4.77 µM; in the experiment with OVCAR-5 ovarian, 19 µM; in the experiment on U251 CNS, 5.63 µM. Further, the TGI was more than 100 µM in the experiment on LOX IMVI melanoma; 5.32 µM with IGROV1 ovarian; 24.4 µM in the experiment on UO-31 renal; 20.3 µM with PC-3 prostate; 32.2 µM with A549 NSCLC; more than 100 µM in the experiment on NCI-H23 lung. The TGI in the experiment with MOLT-4 leukemia was 13.2 µM; with HCT-15 colon, more than 100 µM; in the experiment with OVCAR-5 ovarian, more than 100 µM; in the experiment with U251 CNS, more than 100 µM.
With `COC(=O)c1ccc(-c2c(C#N)[n+](=O)c3cc(Cl)c(Cl)cc3n2[O-])cc1`, the GI50 with LOX IMVI melanoma was 2.38 µM; in the experiment with IGROV1 ovarian it was 3.39 µM; in the experiment with UO-31 renal it was 26.3 µM; in the experiment on PC-3 prostate it was 9.79 µM; in the experiment with A549 NSCLC, 47.4 µM; in the experiment on NCI-H23 lung, 11.7 µM. In addition, the GI50 with MOLT-4 leukemia was 1.18 µM; with HCT-15 colon, 11.1 µM; with OVCAR-5 ovarian, 19.2 µM; with U251 CNS it was 16.7 µM. The TGI is 5.37 µM with LOX IMVI melanoma; more than 100 µM in the experiment on IGROV1 ovarian; 67.3 µM in the experiment on UO-31 renal; 27.9 µM in the experiment on PC-3 prostate; more than 100 µM with A549 NSCLC; 29.3 µM in the experiment with NCI-H23 lung. Moreover, the TGI with MOLT-4 leukemia was determined as 2.96 µM; in the experiment on HCT-15 colon, 91.2 µM; in the experiment with OVCAR-5 ovarian, 39.4 µM; with U251 CNS, 44.9 µM.
Regarding `O=C1CCC/C=C\C[C@H]2C=CC(=O)/C2=C/C[C@H](C/C=C\CC(F)(F)F)O1`, the GI50 was 0.288 µM in the experiment on LOX IMVI melanoma; 0.596 µM in the experiment with IGROV1 ovarian; 0.298 µM in the experiment with UO-31 renal; 0.574 µM in the experiment with PC-3 prostate; 0.528 µM in the experiment with A549 NSCLC; 0.698 µM in the experiment with NCI-H23 lung. Besides, the GI50 is 0.984 µM in the experiment on MOLT-4 leukemia, 0.316 µM with HCT-15 colon, 0.67 µM in the experiment on OVCAR-5 ovarian and 0.419 µM in the experiment on U251 CNS. In addition, the TGI in the experiment with LOX IMVI melanoma came out at 0.591 µM; with IGROV1 ovarian, 1.98 µM; in the experiment on UO-31 renal it was 0.624 µM; in the experiment with PC-3 prostate, 2.71 µM; in the experiment on A549 NSCLC, 2.38 µM; with NCI-H23 lung, 3.67 µM. Besides, the TGI is 7.51 µM with MOLT-4 leukemia, 0.867 µM in the experiment on HCT-15 colon, 3.11 µM in the experiment with OVCAR-5 ovarian and 1.75 µM in the experiment with U251 CNS.
As for `CC(C(=O)O)c1cccc(Oc2ccccc2)c1` (stereo not given), the GI50 with LOX IMVI melanoma, with IGROV1 ovarian, in the experiment on UO-31 renal, in the experiment with PC-3 prostate, in the experiment with A549 NSCLC and with NCI-H23 lung was more than 100 µM throughout. Besides, the GI50 in the experiment with MOLT-4 leukemia, in the experiment with HCT-15 colon, with OVCAR-5 ovarian and with U251 CNS was more than 100 µM each time. Moreover, the TGI in the experiment on LOX IMVI melanoma, in the experiment with IGROV1 ovarian, in the experiment with UO-31 renal, with PC-3 prostate, in the experiment with A549 NSCLC and in the experiment with NCI-H23 lung was more than 100 µM in each case. Besides, the TGI in the experiment with MOLT-4 leukemia, in the experiment with HCT-15 colon, in the experiment with OVCAR-5 ovarian and with U251 CNS was more than 100 µM each time.
On to `O=C(O)c1ccc(C(=O)O)c2c(C(=O)O)ccc(C(=O)O)c12`, for which the TGI in the experiment with LOX IMVI melanoma, in the experiment with IGROV1 ovarian, in the experiment with UO-31 renal, with PC-3 prostate, in the experiment with A549 NSCLC and with NCI-H23 lung was more than 100 µM in each case. The TGI with MOLT-4 leukemia, with HCT-15 colon, with OVCAR-5 ovarian and in the experiment on U251 CNS was more than 100 µM each time.
